Source: EP0584588A1, “Anti-ulcer composition containing imidazole derivative” (NIPPON CHEMIPHAR CO., LTD., priority 1992, dated 1994)
Like-named read-outs stand apart in the source and are kept apart here.

What was measured:
[1] = Stability in acidic conditions (Britten-Robinson buffer, HPLC); format: physicochemical
Description: The stability of the compound in acidic conditions was determined at 37 °C in Britten-Robinson buffer which had been previously adjusted to pH 3.0, 5.0 or 7.0. The compound was dissolved in this buffer by supersonic waves, and the filtered solution was monitored by high performance liquid chromatography (HPLC) (Tosoh TSK-gel ODS-120T 4.6-250mm, CH₃CN/10 mM phosphate buffer (pH 6.0), 1 ml/min., room temperature (25 °C), detector ultraviolet (UV) 240-250 nm). Half-lives (T1/2) were determined from linear regression of the concentration vs. time (h).

HCl-ethanol erosion = HCl-ethanol erosion model (cytoprotective action on gastrointestinal tract); format: in vivo, SD rats; details: Rattus norvegicus, 0.5 h; oral, 30 min. before HCl-ethanol mixture; total length of erosions; read-out: ED₅₀
Description: To a mixture of 2-[(2-Isobutylamino)benzylthio]imidazole (1 g) obtained in (i) above, chloroform (40 ml), and methanol (10 ml) was portionwise added under chilling with ice, m-chloroperbenzoic acid (equivalent molar amount). After completion of the reaction was confirmed using TLC, the reaction mixture was made alkaline by addition of saturated aqueous sodium hydrogen carbonate and extracted with chloroform. The chloroform portion was then treated successively with three portions of 10 ml of 0.1 N aqueous NaOH and one portion of 20 ml of 0.1 N aqueous NaOH to transfer the desired product into the aqueous portions. The obtained four aqueous portions were separately made ammonia-alkaline by addition of 20% aqueous […]. The precipitated crystals were collected, washed sufficiently with ether, and dried to give 0.6 g (yield: 56.5%) of the desired product as a white crystalline powder. […]
SD rats were fested for 24 hours. […] Length (mm) of each erosion was measured, and the total length (mm) of the erosions observed in one rat was calculated. […]

Row | half-life ([1]; britten-robinson buffer, pH 3) | half-life ([1]; britten-robinson buffer, pH 5) | half-life ([1]; britten-robinson buffer, pH 7) | half-life ([1]; pH 3.0, 37°C, Britten-Robinson buffer, read-out: (T1/2) (converted)) | half-life ([1]; pH 5.0, 37°C, Britten-Robinson buffer, read-out: (T1/2) (converted)) | half-life ([1]; pH 7.0, 37°C, Britten-Robinson buffer, read-out: (T1/2) (converted)) | SMILES | ED50 (HCl-ethanol erosion)
1 | 1.8 min | 55.8 min | 3780 min |  |  |  | CC(C)CNc1ccccc1C[S+]([O-])c1ncc[nH]1 (stereo not shown) [Imidazole derivative A, 2-[(2-Isobutylamino)benzylsulfinyl]imidazole] | 3.6 mg/kg
2 |  |  |  | 3 min | 20.4 min | 1620 min | COc1ccc2[nH]c([S+]([O-])Cc3ncc(C)c(OC)c3C)nc2c1 (stereo not shown) [Omeprazole, reference compound] | 
